Experimental data taken from ChEMBL document CHEMBL3886634, “Substituted 3-haloallylamine inhibitors of ASSAO and uses thereof” (2016).

Legend:
[1] = biological target: T1, Amine oxidase [flavin-containing] B (Homo sapiens, UniProt P27338)
T1 sequence (P27338 whole entry): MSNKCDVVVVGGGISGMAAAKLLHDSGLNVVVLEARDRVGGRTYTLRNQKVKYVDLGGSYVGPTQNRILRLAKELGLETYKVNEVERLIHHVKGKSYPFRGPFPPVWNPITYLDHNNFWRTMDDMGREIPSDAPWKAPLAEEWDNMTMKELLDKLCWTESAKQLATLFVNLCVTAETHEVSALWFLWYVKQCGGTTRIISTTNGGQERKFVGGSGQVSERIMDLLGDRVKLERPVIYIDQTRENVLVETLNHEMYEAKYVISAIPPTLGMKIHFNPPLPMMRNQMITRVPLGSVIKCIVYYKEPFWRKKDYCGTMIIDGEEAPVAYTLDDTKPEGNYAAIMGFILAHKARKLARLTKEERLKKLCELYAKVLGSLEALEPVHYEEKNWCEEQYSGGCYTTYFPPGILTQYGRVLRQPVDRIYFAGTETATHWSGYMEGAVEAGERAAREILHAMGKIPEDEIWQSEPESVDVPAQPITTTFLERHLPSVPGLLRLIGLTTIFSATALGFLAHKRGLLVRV

[2] = biological target: T2, Diamine oxidase [copper-containing] (Homo sapiens, UniProt P19801); test: DAO Inhibition Assay: Recombinant human DAO (2.4 μg/mL) was used as source of DAO enzyme activities.
T2 sequence (P19801 whole entry): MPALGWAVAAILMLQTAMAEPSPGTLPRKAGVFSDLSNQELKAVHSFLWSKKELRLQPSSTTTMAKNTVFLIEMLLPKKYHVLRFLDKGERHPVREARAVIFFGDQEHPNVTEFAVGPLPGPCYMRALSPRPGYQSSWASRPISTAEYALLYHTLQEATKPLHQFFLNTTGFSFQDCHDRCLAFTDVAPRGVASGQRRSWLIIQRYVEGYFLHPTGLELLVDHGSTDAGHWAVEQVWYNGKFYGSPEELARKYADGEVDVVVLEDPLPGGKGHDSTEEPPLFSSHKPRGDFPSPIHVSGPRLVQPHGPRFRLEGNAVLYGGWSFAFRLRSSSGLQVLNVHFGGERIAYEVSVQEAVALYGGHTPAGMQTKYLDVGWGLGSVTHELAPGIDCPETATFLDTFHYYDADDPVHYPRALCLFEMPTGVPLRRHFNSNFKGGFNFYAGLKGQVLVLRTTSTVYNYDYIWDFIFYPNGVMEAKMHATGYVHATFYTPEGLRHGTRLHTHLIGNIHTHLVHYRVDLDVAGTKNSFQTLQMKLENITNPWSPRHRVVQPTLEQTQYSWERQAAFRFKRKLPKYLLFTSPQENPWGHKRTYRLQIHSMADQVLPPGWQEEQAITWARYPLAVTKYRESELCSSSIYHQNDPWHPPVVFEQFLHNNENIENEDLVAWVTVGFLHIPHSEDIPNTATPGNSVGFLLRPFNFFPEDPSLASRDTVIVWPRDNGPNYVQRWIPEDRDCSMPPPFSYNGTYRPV

## NC/C(=C/F)CCc1ccc(F)cc1 [MOFEGILINE]
[1]
  IC50: 5 nM
[2]
  IC50: > 10000 nM
